For assay [1], the system named is Clostridium phytofermentans xylose isomerase CpXI (protein ID: YP_001558336), expressed in yeast. The following applies: Non-patent Literature 1; cited from earlier work.
In assay [2] the test system is Piromyces sp. E2 xylose isomerase PiXI, expressed in yeast. The following applies: Non-patent Literature 1; cited from earlier work.
Assay [3] deals with Xylose isomerase RsXIC1-O (RsXI-C1, SEQ ID NO: 2; codon optimized gene RsXIC1-O, SEQ ID NO: 45), intestinal protist of Reticulitermes speratus, expressed in …. The assay can be described thus: Xylose isomerase kinetic analysis, crude yeast extract of W600W/pRS436GAP-RsXIC1-O (SDH-coupled NADH oxidation). The assay is classed as biochemical. The method, then:
(§1) The genes were synthesized by Genscript Corporation (www.Genscript.com) and Life Technologies Corporation (www.lifetechnologies.com), and the synthesized genes were named RsXIC1-O (SEQ ID NO: 45), PiXI-O (SEQ ID NO: 46) and CpXI-O (SEQ ID NO: 47), respectively.
(§2) The W600W/pRS436GAP-RsXIC1-O strain and W600W/pRS436GAP-PiXI-O strain were cultured for 24 hours in SD liquid medium, and the cells were collected and washed twice with sterile water, and then washed twice with 100 mM phosphate buffer (pH 7.0). After washing, glass beads (di 0.3 mm, Yasui Kikai) and 100 mM phosphate buffer (pH 7.0) were added to the yeast pellets, and a Multi-beads shocker (Yasui Kikai) was operated for 7 minutes at 4° C., 2500 rpm to disrupt the yeast cells. The resulting disrupted cell liquid was centrifuged for 5 minutes at 4° C., 12000 rpm, and the supernatant was collected as a crude yeast extract. The total protein concentration of the crude yeast extract was measured with a Quick Start protein assay kit (Bio-Rad).
(§3) The reaction was performed at 30° C., and NADH absorbancy changes were measured at a wavelength of 340 nm with a Ubest-55 spectrometer (Jasco).

Assay [4] has as its target Piromyces sp. E2 xylose isomerase PiXI-O (PiXI; codon optimized gene PiXI-O, SEQ ID NO: 46), expressed in yeast (Piromyces sp. E2, UniProt A0ACD6B9F5). The assay can be described thus: Xylose isomerase kinetic analysis, crude yeast extract of W600W/pRS436GAP-PiXI-O (SDH-coupled NADH oxidation). The format is biochemical. As for the experimental part:
as §1, §2, §3

Where [5] appears, read: xylose 5 to 250 mM, pH 7.5, 30° C., 10 mM MgCl2, crude yeast extract, Hanes-Woolf plot.

The text below walks through data of US8772012B2 (Kabushiki Kaisha Toyota Chuo Kenkyusho, priority 2009, dated 2014).

As a reminder, the Km is the substrate concentration at which the rate is half of its maximum.

Sequence of Piromyces sp. E2 xylose isomerase PiXI-O (PiXI; codon optimized gene PiXI-O, SEQ ID NO: 46), expressed in yeast (A0ACD6B9F5 1-437): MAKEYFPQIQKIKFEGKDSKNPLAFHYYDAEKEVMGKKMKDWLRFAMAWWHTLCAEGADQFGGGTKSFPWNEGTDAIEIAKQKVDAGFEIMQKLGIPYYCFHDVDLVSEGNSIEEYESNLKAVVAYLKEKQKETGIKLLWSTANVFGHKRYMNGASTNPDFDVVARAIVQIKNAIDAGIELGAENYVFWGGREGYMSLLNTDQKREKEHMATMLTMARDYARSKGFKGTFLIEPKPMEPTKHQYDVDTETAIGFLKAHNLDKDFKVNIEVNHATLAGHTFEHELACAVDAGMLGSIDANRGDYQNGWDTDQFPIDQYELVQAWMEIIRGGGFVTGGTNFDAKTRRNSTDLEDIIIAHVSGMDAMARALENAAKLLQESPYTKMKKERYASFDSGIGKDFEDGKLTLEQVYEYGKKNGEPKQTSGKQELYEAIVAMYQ

With `OC1OC[C@@H](O)[C@H](O)[C@H]1O` (stereo partly shown) [xylose], the Km is 66 ± 1 mM in assay [1], 49.8 ± 2.82 mM in assay [2] and 13.3 ± 2.02 mM in assay [3] (setting [5]). In addition, in assay [3] (Km ratio RsXIC1-O vs PiXI-O), the “Km value for RsXIC1-O relative to the value for PiXI-O” value was “not more than ⅓”. In addition, the Vmax stood at 0.054 ± 0.007 μmol/mg-protein in assay [3] (setting [5]) and 0.078 ± 0.026 μmol/mg-protein in assay [4] (setting [5]). Moreover, in assay [4] (Vmax ratio PiXI-O vs RsXIC1-O), the “maximum reaction velocity Vmax for PiXI-O relative to RsXIC1-O” value is listed as “about 1.5 times”.
